Source: patent US20250381274A1 (priority 2022, published 2025)
“Also recorded” adds a separate entry of the source.

What was measured:
cornea [1] = assay: Corneal topography (EyeSys), effective refractive power of ex vivo eyes crosslinked under coverslip loading; design: species or system rabbit; details: for immediate diopter drop (words) / sustained diopter drop (words): 20% ribose 1 hr + UVA 365 nm lamp up to 3 hrs; for immediate diopter drop (words): coverslip (Hypothesis 2B / Group3); for sustained diopter drop (words): coverslip, final time point 8-10 hours; for immediate diopter drop (decrease in effective refractive power): immediately after irradiation
Source text: • 5 additional rabbits (Paired treated and control for OS/OD) • Sample preparation for ex vivo EyeSys topography: • connected to IV system (˜15 mm H2O) • Epithelium removed • CxL during mechanical deformation introduced by the coverslip • Point1: 1 hr after IV stabilization • Point2: after applying 20% (1.7M) Ribose, then 20% Dextran • Point3: after flattening/treatment (˜2 hrs) • (flattened 8-10 mm) • Point4: ˜1 hr after point3 • Point5: last point (might need trypan blue on top) • Laser Treatments: • Fidelity II, 1069 nm, 39fs, 450 mW • Focusing: no (deliberate) spark around touching the tissue • ZEISS 40X, NA=0.1463 • Z: increments 20 μm, 5 layers (several intervals) • 1 stlayer 15 μm below surface of focus sparking • XY: 10 μm zigzag grid, 3 mm radius circle • Motor speed 2.6 mm/s, full circle treatments: ˜25*5 mins • Representative OCT and visual changes are shown in appended FIGS. 1-25.
• 3 additional rabbits (Paired treated and control for OS/OD) • connected to IV system, stabilize for ˜1 hr • Trypan Blue inside the anterior chamber beneath cornea • CxL during mechanical deformation introduced by the coverslip • (˜40%-60% flattened by coverslip from the total diameter) • Treatment Protocol-1 hr submerged in 20% w/v Ribose in 20% Dextran • up to 3 hrs of UVA lamp (visible flattening as an indicator for duration)
Corneal Topography: For Group3 eyes, using an EyeSys Vista handheld topographer, the effective refractive power (Eff.Rp) was collected at multiple time points in a 10-hour period after eye harvest. The immediate diopter drop was defined as the difference between the initial baseline Eff.Rp and the Eff.Rp immediately after CXL. The sustained diopter drop was defined as the difference between the initial baseline Eff.Rp and the final Eff.Rp. Statistical Analysis: One-tailed paired t-tests were used for statistical analysis of Eff.Rp (Group3); two-tailed paired t-tests were used for biomechanical comparison (Group1 and 2). A p-value smaller than 0.05 was considered statistically significant.
Corneal Topography and OCT: The EyeSys topography effective refractive power (Eff.Rp) and OCT images were collected at multiple time points in a 10-hour period after eye harvest. Diopter drop after CxL was calculated and compared relative to the baseline Eff.Rp.
(§1) In Group2 (n=15 rabbits), to assess corneal flattening, 24 intact eyeballs (12 rabbits) were enucleated and placed into a custom-build holder such that one eye was subject to ROS-Glycation-CXL, and the other served as a paired control. After 1 hr incubation in 20% ribose PBS, all apical eyeballs were pressed with a coverslip until the contact between the cornea and the coverslip reached approximately 3 mm in diameter until the treatment finished. Group 2A's (n=6 pairs) treated eyes were exposed to 1.5 hours of UVA lamp irradiation, whereas Group 2 B's (n=6 pairs) treated eyes were exposed to 3 hours of UVA lamp irradiation. Intraocular pressure was kept at 18-20 mm H2O through an IV system with needles connecting at the posterior side of the eyeball. In order to investigate the mechanical difference between the 1.5 hrs and 3 hrs irradiation groups, Group 2C's (n=3 pairs) corneas went through similar preparations as Group 1 corneas did such that the two treatments with different irradiation times were applied to the pair of eyes from the same animal.
Effective refractive power (Eff. RP) was measured using a handheld topographer (EyeSys Vista, Teas, USA) for Group 2A and 2B eyes. The first point measured at 0.5-1 hour represents the baseline initial refractive power after stabilization at the controlled intraocular pressure before any alterations. The second point measured at 2 hours represents the refractive power after the ribose solution application. The third point at 3.5 hours for Group 2A or 5 hours for Group 2B represents refractive power after ROS-Glycation-CXL or loading for control eyes. […]

cornea [2] = assay: Optical coherence tomography, corneal apical thickness; design: species or system rabbit; details: for sustained thickness change, treated vs control / thickness increase compared to the baseline: final time point; for thickness increase compared to the baseline: all eyes (treated and control)
Method: as §1, with “animal. The corneas' cross-section and apical thickness were measured using an optical coherence tomographer (OQ LabScope Lumedica, North Carolina, USA) at the same time points described above. The thickness of the corneas was first segmented in ImageJ and calculated using a constant pixel-to-length conversion factor.” for “animal.”

[3] = 20% ribose + 1069 nm femtosecond laser 450 mW, coverslip deformation (Hypothesis 2A)

## O=C[C@H](O)[C@H](O)[C@H](O)CO [ribose]
Cornea [1]
  immediate diopter drop (words): significant Eff.RP diopter drop
  sustained diopter drop (words): statistically significant sustained Eff.RP diopter drop; also recorded: stably sustained
Cornea [1]; listed as Ribose
  immediate diopter drop (words): diopter drop immediately after treatment
  sustained diopter drop (words): persistent at the 8-10 hours time point
Cornea [1]; [3]
  immediate diopter change: diopter drop immediately after treatment
  persistence of diopter change: not persistent and gradually recovered to the baseline
Cornea [1]; Group 2A: 20% ribose 1 hr, 1.5 hr 365 nm UVA lamp under coverslip flattening
  immediate diopter drop (decrease in effective refractive power): 5 diopters
Cornea [1]; Group 2A: 1.5 hr UVA treatment, 10 hr time point
  sustained diopter drop (decrease in effective refractive power): 2.5 diopters
Cornea [1]; Group 2B: 20% ribose 1 hr, 3 hr 365 nm UVA lamp under coverslip flattening
  immediate diopter drop (decrease in effective refractive power): 10 diopters
Cornea [1]; Groups 2A and 2B: ribose + 1.5 hr or 3 hr UVA lamp with coverslip loading
  refractive power drop, crosslinked vs control pairs, immediate and sustained: sustained drop of refractive power; also recorded: Significant immediate and sustained refractive power drop differences
Cornea [2]; Group 2A, 1.5 hr treatment
  sustained thickness change, treated vs control: no significant difference; also recorded: no significant immediate and sustained corneal apical thickness differences
Cornea [2]; Group 2A, 1.5 hr treatment, immediately after treatment
  immediate thickness change, treated vs loading-only control: no significant thickness change difference; also recorded: no significant immediate and sustained corneal apical thickness differences
Cornea [2]; Group 2A
  thickness increase compared to the baseline: above 100 μm
Cornea [2]; Group 2B, 3 hr treatment
  sustained thickness change, treated vs control: no significant difference; also recorded: no significant immediate and sustained corneal apical thickness differences
Cornea [2]; Group 2B
  thickness increase compared to the baseline: above 200 μm
Cornea [2]; Group 2B: coverslip flattening + 3 hr ROS-Glycation CxL, immediately after treatment
  immediate apical thickness increase compared to loading-only control: 400 nm
